Among the data in patent US11660303B2, “2-phenylimidazo[4,5-b]pyridin-7-amine derivates useful as inhibitors of mammalian tyrosine kinase ROR1 activity” (KANCERA AB, priority 2016, dated 2023) are IC50 values, retold here.

The test system of one test is PBMC from CLL patients. Briefly: CellTiter-Blue Cell Viability Assay, PBMC from CLL patients. The note with it: Homo sapiens, cell toxicity, culture 24, 48 and 72 h (time of the values not stated). It counts as cell-based. How it is done: (§1) The CellTiter-Blue® Cell Viability Assay provides a homogeneous, fluorometric method for estimating the number of viable cells present in multi-well plates. The assay uses the indicator dye resazurin to measure the metabolic capacity of cells. Viable cells retain the ability to reduce resazurin into resorufin, which is highly fluorescent.
(§2) Stock solutions (10 or 100 mM in DMSO) of compounds were serially diluted 1:2 in 11 concentrations and 25 nL/well (100 mM stock) or 50 nL/well (10 mM stock) were acoustically dispensed in assay plates with an EDC acoustic dispenser. Final starting concentration in the assay was 20 μM (0.2% DMSO) or 100 μM (0.1% DMSO) for test compounds.
(§3) Peripheral blood mononuclear cells (PBMC) from CLL patients or healthy volunteers were seeded in assay plates (384-well black/clear, Greiner #781091) pre-dispensed with compounds, 25 μL/well, and cultured for 24, 48 and 72 h. The cell concentration was 50 000 cells/well for PBMC from CLL patients or healthy volunteers. After 24, 48 and 72 h culture, Celltiter Blue reagent was added (5 μL/well) and the plates were incubated for 2 h. The plates were read in an Envision fluorescence reader (PerkinElmer) with Ex544 nm/Em590 nm. Results were calculated as % cytotoxicity compared to background (cells treated with 0.2% DMSO).
(§4) Thus, IC50 values for cell toxicity in PBMC from CLL patients as well as healthy volunteers for some compounds of the invention are shown in Table 3 as measured by the CellTiter-Blue® Cell Viability Assay.
In general terms: The colour change of resazurin is a common sign of viable cells or microbes.

The subject of test [1] is PBMC from healthy volunteers. Kind of test: CellTiter-Blue Cell Viability Assay, PBMC from healthy volunteers. To be noted: Homo sapiens, cell toxicity, culture 24, 48 and 72 h (time of the values not stated). It counts as cell-based. On the procedure:
as §1, §2, §3, §4

As a reminder, the IC50 is the concentration that gives 50% inhibition. A lower IC50 goes with greater potency. Turning to `CN1CC[C@H](Nc2c(Br)cnc3[nH]c(-c4ccc(N5CCN(Cc6cncnc6)CC5)cc4)nc23)C1` [Example 157, 6-Bromo-N-[(3S)-1-methylpyrrolidin-3-yl]-2-{4-[4-(pyrimidin-5-ylmethyl)piperazin-1-yl]phenyl}-3H-imidazo[4,5-b]pyridin-7-amine], the IC50 in the test with PBMC from CLL patients is 290 nM; in test [1], > 20 µM.
As for `CCN1CCC(Nc2c(Br)cnc3[nH]c(-c4ccc(N5CCN(C(=O)COC)CC5)cc4)nc23)CC1` [Example 239, 6-Bromo-N-(1-ethylpiperidin-4-yl)-2-{4-[4-(methoxyacetyl)piperazin-1-yl]phenyl}-3H-imidazo[4,5-b]pyridin-7-amine], the IC50 is 100 nM in the test with PBMC from CLL patients and > 20 µM in test [1].
For the compound `COc1ccc(CN2CCC(Nc3c(Cl)cnc4[nH]c(-c5ccc(N6CCN(C(C)=O)CC6)cc5)nc34)CC2)cc1` [Example 35, 2-[4-(4-Acetylpiperazin-1-yl)phenyl]-6-chloro-N-[1-(4-methoxybenzyl)piperidin-4-yl]-3H-imidazo[4,5-b]pyridin-7-amine], the values for the IC50 (in the test with PBMC from CLL patients; in test [1]) were 430 nM and > 20 µM, respectively.
Consider `COCCCN1CCN(c2ccc(-c3nc4c(NC5CCN(CCOC)CC5)c(Cl)cnc4[nH]3)cc2)CC1` [Example 308, 6-Chloro-N-[1-(2-methoxyethyl)piperidin-4-yl]-2-{4-[4-(3-methoxypropyl)piperazin-1-yl]phenyl}-3H-imidazo[4,5-b]pyridin-7-amine], for which the IC50 in the test with PBMC from CLL patients was 650 nM; in test [1] it was > 20 µM.
With `CN1CCC(Nc2c(Cl)cnc3[nH]c(-c4ccc(N5CCOCC5)cc4)nc23)CC1` [Example 27, 6-Chloro-N-(1-methylpiperidin-4-yl)-2-(4-morpholin-4-ylphenyl)-3H-imidazo[4,5-b]pyridin-7-amine], the IC50 with PBMC from CLL patients was determined as 90 nM; in test [1], 17.7 µM.
Regarding `COCCN1CCN(c2ccc(-c3nc4c(NC5CCN(CC6CC6)CC5)c(Cl)cnc4[nH]3)cc2)CC1=O` [Example 355, 4-[4-(6-Chloro-7-{[1-(cyclopropylmethyl)piperidin-4-yl]amino}-3H-imidazo[4,5-b]pyridin-2-yl)phenyl]-1-(2-methoxyethyl)piperrazin-2-one], the IC50 in the test with PBMC from CLL patients is 110 nM; in test [1], > 20 µM.
The like results for `COCCC1CCN(c2ccc(-c3nc4c(NC5CCN(C)CC5)c(Cl)cnc4[nH]3)cc2)CC1` [Example 281, 6-Chloro-2-{4-[4-(2-methoxyethyl)piperidin-1-yl]phenyl}-N-(1-methylpiperidin-4-yl)-3H-imidazo[4,5-b]pyridin-7-amine] were, in that order, 60 nM and 8.4 µM.
Consider `CN1CCC(Nc2c(Br)cnc3[nH]c(-c4ccc(N5CCN(CCCO)CC5)cc4)nc23)CC1` [Example 268, 3-[4-(4-{6-Bromo-7-[(1-methylpiperidin-4-yl)amino]-3H-imidazo[4,5-b]pyridin-2-yl}phenyl)piperazin-1-yl]propan-1-ol], for which the IC50 with PBMC from CLL patients is 10 nM; in test [1] it was > 20 µM.
The like results for `CN1CC[C@H](Nc2c(Cl)cnc3[nH]c(-c4ccc(N5CCN(Cc6ccncc6)CC5)cc4)nc23)C1` [Example 126, 6-Chloro-N-[(3S)-1-methylpyrrolidin-3-yl]-2-{4-[4-(pyridin-4-ylmethyl)piperazin-1-yl]phenyl}-3H-imidazo[4,5-b]pyridin-7-amine] were, in that order, 130 nM and > 20 µM.
In the case of `CCN1CCC(Nc2c(Cl)cnc3[nH]c(-c4ccc(N5CCN(Cc6cncs6)CC5)cc4)nc23)CC1` [Example 320, 6-Chloro-N-(1-ethylpiperidin-4-yl)-2-{4-[4-(1,3-thiazol-5-ylmethyl)piperazin-1-yl]phenyl}-3H-imidazo[4,5-b]pyridin-7-amine], the IC50 is 100 nM in the test on PBMC from CLL patients and > 20 µM in test [1].
As for `Clc1cnc2[nH]c(-c3ccc(N4CCOCC4)cc3)nc2c1NC1CCN(Cc2cccs2)CC1` [Example 83, 6-Chloro-2-(4-morpholin-4-ylphenyl)-N-[1-(thiophen-2-ylmethyl)piperidin-4-yl]-3H-imidazo[4,5-b]pyridin-7-amine], the IC50 is 1000 nM in the test with PBMC from CLL patients and > 20 µM in test [1].
The like results for `COCCCN1CCN(c2ccc(-c3nc4c(NC5CCN(C(C)C)CC5)c(Cl)cnc4[nH]3)cc2)CC1=O` [Example 246, 4-[4-(6-Chloro-7-{[1-(1-methylethyl)piperidin-4-yl]amino}-3H-imidazo[4,5-b]pyridin-2-yl)phenyl]-1-(3-methoxypropyl)piperazin-2-one] were, in that order, 110 nM and > 20 µM.
Regarding `COCCN1CCN(c2ccc(-c3nc4c(NC5CCN(Cc6ccc(O)c(OC)c6)CC5)c(Cl)cnc4[nH]3)cc2)CC1` [Example 103, 4-({4-[(6-Chloro-2-{4-[4-(2-methoxyethyl)piperazin-1-yl]phenyl}-3H-imidazo[4,5-b]pyridin-7-yl)amino]piperidin-1-yl}methyl)-2-methoxyphenol], the IC50 with PBMC from CLL patients is 350 nM; in test [1], > 20 µM.
As to `CCN1CCC(Nc2c(Br)cnc3[nH]c(-c4ccc(N5CCN(C(=O)C(C)(C)C)CC5)cc4)nc23)CC1` [Example 363, 6-Bromo-2-{4-[4-(2,2-dimethylpropanoyl)piperazin-1-yl]phenyl}-N-(1-ethylpiperidin-4-yl)-3H-imidazo[4,5-b]pyridin-7-amine], the IC50 with PBMC from CLL patients is 140 nM; in test [1], 3.1 µM.
In the case of `CN1CCC(Nc2c(Cl)cnc3[nH]c(-c4ccc(N5CCC(CCO)CC5)cc4)nc23)CC1` [Example 254, 2-[1-(4-{6-Chloro-7-[(1-methylpiperidin-4-yl)amino]-3H-imidazo[4,5-b]pyridin-2-yl}phenyl)piperidin-4-yl]ethanol], the half-inhibitory concentration (IC50) with PBMC from CLL patients was 50 nM; in test [1], 16.3 µM.
Regarding `COCCN1CCN(c2ccc(-c3nc4c(NC5CCN(C)CC5)c(Cl)cnc4[nH]3)cc2)CC1=O` [Example 230, 4-(4-{6-Chloro-7-[(1-methylpiperidin-4-yl)amino]-3H-imidazo[4,5-b]pyridin-2-yl}phenyl)-1-(2-methoxyethyl)piperazin-2-one], the IC50 is 70 nM with PBMC from CLL patients and > 20 µM in test [1].
On to `CN1CCC(Nc2c(Br)cnc3[nH]c(-c4ccc(N5CCN(Cc6ccccn6)CC5)cc4)nc23)CC1` [Example 115, 6-Bromo-N-(1-methylpiperidin-4-yl)-2-{4-[4-(pyridin-2-ylmethyl)piperazin-1-yl]phenyl}-3H-imidazo[4,5-b]pyridin-7-amine], for which the IC50 in the test on PBMC from CLL patients was 40 nM; in test [1], 16.2 µM.
Consider `CN1CCC(Nc2c(Cl)cnc3[nH]c(-c4ccc(N5CCN(C)CC5)cc4)nc23)CC1` [Example 2, 6-Chloro-2-[4-(4-methylpiperazin-1-yl)phenyl]-N-(1-methylpiperidin-4-yl)-3H-imidazo[4,5-b]pyridin-7-amine], for which the IC50 in the test with PBMC from CLL patients is 160 nM; in test [1], > 20 µM.
In the case of `CCN1CCC(Nc2c(Br)cnc3[nH]c(-c4ccc(N5CCN(Cc6cccnc6)CC5)cc4)nc23)CC1` [Example 174, 6-Bromo-N-(1-ethylpiperidin-4-yl)-2-{4-[4-(pyridin-3-ylmethyl)piperazin-1-yl]phenyl}-3H-imidazo[4,5-b]pyridin-7-amine], the values for the IC50 (in the test on PBMC from CLL patients; in test [1]) were 10 nM and > 20 µM, respectively.
As to `CCN1CCC(Nc2c(Br)cnc3[nH]c(-c4ccc(N5CCN(C)C(=O)C5)cc4)nc23)CC1` [Example 299, 4-(4-{6-Bromo-7-[(1-ethylpiperidin-4-yl)amino]-3H-imidazo[4,5-b]pyridin-2-yl}phenyl)-1-methylpiperazin-2-one], the results for the IC50 (in the test on PBMC from CLL patients; in test [1]) were 90 nM and > 20 µM, respectively.
Consider `CN1CCC(Nc2c(Cl)cnc3[nH]c(-c4ccc(N5CCNC(=O)C5)cc4)nc23)CC1` [Example 37, 4-(4-{6-Chloro-7-[(1-methylpiperidin-4-yl)amino]-3H-imidazo[4,5-b]pyridin-2-yl}phenyl)piperazin-2-one], for which the IC50 with PBMC from CLL patients is 290 nM; in test [1] it was > 20 µM.
With `CC(C)N1CCC(Nc2c(Cl)cnc3[nH]c(-c4ccc(N5CCN(CCNc6ccnn6C)CC5)cc4)nc23)CC1` [Example 326, 6-Chloro-N-[1-(1-methylethyl)piperidin-4-yl]-2-[4-(4-{2-[(1-methyl-1H-pyrazol-5-yl)amino]ethyl}piperazin-1-yl)phenyl]-3H-imidazo[4,5-b]pyridin-7-amine], the IC50 in the test with PBMC from CLL patients was 260 nM; in test [1] it was > 20 µM.
For the compound `CN1CCC(Nc2c(Cl)cnc3[nH]c(-c4ccc(N5CCN(Cc6ccccn6)CC5)cc4)nc23)CC1` [Example 98, 6-Chloro-N-(1-methylpiperidin-4-yl)-2-{4-[4-(pyridin-2-ylmethyl)piperazin-1-yl]phenyl}-3H-imidazo[4,5-b]pyridin-7-amine], the IC50 in the test with PBMC from CLL patients was 60 nM; in test [1], > 20 µM.
The like results for `CC(C)N1CCC(Nc2c(Br)cnc3[nH]c(-c4ccc(N5CCN(CCC#N)CC5)cc4)nc23)CC1` [Example 337, 3-{4-[4-(6-Bromo-7-{[1-(1-methylethyl)piperidin-4-yl]amino}-3H-imidazo[4,5-b]pyridin-2-yl)phenyl]piperazin-1-yl}propanenitrile] were, in that order, 250 nM and > 20 µM.
